# Test results from US20060264388A1, “Method for treating liver cancer by intrahepatic administration of nemorubicin” (priority 2003, published 2006).
# Legend:
# [1] = test system: patients with liver cancer; experiment: Hematological toxicity - Leucocytes, worst CTC Grade by cycle, intrahepatic artery nemorubicin q8wk vs q6wk; type: in vivo, human
# Experimental: (§1) The objective of the study was to shorten the time interval between treatment administrations from every 8 weeks (q8wk) of the protocol as reported in WO 00/15203 to every 6 weeks (q6wk). This was done in the attempt of improving the therapeutic potential of nemorubicin treatment through an increase of the dose intensity of the therapy, simultaneously safeguarding patient safety.
# (§2) Overall, 13 patients were treated with the q8wk schedule (total 25 cycles administered; doses ranged from 200 to 800 mcg/m^2), and 11 patients were treated with the q6wk schedule (total 32 cycles administered; doses were 200 and 600 mcg/m^2).
# (§3) The NCI-Common Tosicity Criteria grading system (CTC Grade), Version 2.0, was used to report toxicities.
# (§4) A slight cumulative effect (i.e., increase in frequency but not in severity) was observed after repeated cycles for leucopenia and neutropenia (Tables 2 and 3), mainly with the q8wk schedule.
# [2] = test system: patients with liver cancer; experiment: Hematological toxicity - Neutrophils, worst CTC Grade by cycle, intrahepatic artery nemorubicin q8wk vs q6wk; type: in vivo, human
# Experimental: as §1, §2, §3, §4
# tumor cells = conditions: mouse, rat and human liver microsomes; cited from earlier work
# [3] = test system: liver metastases in colorectal and renal cancer patients; conditions: i.v., cited from earlier work
# [4] = 200 mcg/m^2 q6wk, All cycles, 11 evaluable cycles
# [5] = 200 mcg/m^2 q6wk, Cycle 1, 5 evaluable cycles
# [6] = 200 mcg/m^2 q6wk, Cycles > 1, 6 evaluable cycles
# [7] = 200 mcg/m^2 q8wk, All cycles, 5 evaluable cycles
# [8] = 200 mcg/m^2 q8wk, Cycle 1, 3 evaluable cycles
# [9] = 200 mcg/m^2 q8wk, Cycles > 1, 2 evaluable cycles
# [10] = 400 mcg/m^2 q8wk, All cycles, 4 evaluable cycles
# [11] = 400 mcg/m^2 q8wk, Cycle 1, 3 evaluable cycles
# [12] = 600 mcg/m^2 q6wk, All cycles, 18 evaluable cycles
# [13] = 600 mcg/m^2 q6wk, Cycle 1, 6 evaluable cycles
# [14] = 600 mcg/m^2 q6wk, Cycles > 1, 12 evaluable cycles
# [15] = 600 mcg/m^2 q8wk, All cycles, 8 evaluable cycles
# [16] = 600 mcg/m^2 q8wk, Cycle 1, 4 evaluable cycles
# [17] = 600 mcg/m^2 q8wk, Cycles > 1, 4 evaluable cycles
# [18] = 800 mcg/m^2 q8wk, All cycles, 4 evaluable cycles
# [19] = 800 mcg/m^2 q8wk, Cycle 1, 3 evaluable cycles
# [20] = 800 mcg/m^2 q8wk, Cycles > 1, 1 evaluable cycle
structure (smiles),measurement,setting,value
"COc1cccc2c1C(=O)c1c(O)c3c(c(O)c1C2=O)C[C@@](O)(C(=O)CO)C[C@@H]3O[C@H]1C[C@H](N2CCO[C@H](OC)C2)[C@H](O)[C@H](C)O1.Cl [nemorubicin, 3′desamino-3′[2(S)methoxy-4-morpholinyl]doxorubicin-hydrochloride]","Leucocytes, worst CTC Grade by cycle: All Grades (%)",[1]; [4],4 (36%) (%)
same,"Leucocytes, worst CTC Grade by cycle: Grade 1-2 (%)",[1]; [4],3 (27%) (%)
same,"Leucocytes, worst CTC Grade by cycle: All Grades (%)",[1]; [5],1 (20%) (%)
same,"Leucocytes, worst CTC Grade by cycle: All Grades (%)",[1]; [6],3 (50%) (%)
same,"Leucocytes, worst CTC Grade by cycle: Grade 1-2 (%)",[1]; [6],3 (50%) (%)
same,"Leucocytes, worst CTC Grade by cycle: All Grades (%)",[1]; [7],4 (80%) (%)
same,"Leucocytes, worst CTC Grade by cycle: Grade 1-2 (%)",[1]; [7],4 (80%) (%)
same,"Leucocytes, worst CTC Grade by cycle: All Grades (%)",[1]; [8],2 (67%) (%)
same,"Leucocytes, worst CTC Grade by cycle: Grade 1-2 (%)",[1]; [8],2 (67%) (%)
same,"Leucocytes, worst CTC Grade by cycle: All Grades (%)",[1]; [9],2 (100%) (%)
same,"Leucocytes, worst CTC Grade by cycle: Grade 1-2 (%)",[1]; [9],2 (100%) (%)
same,"Leucocytes, worst CTC Grade by cycle: All Grades (%)",[1]; [10],1 (25%) (%)
same,"Leucocytes, worst CTC Grade by cycle: Grade 1-2 (%)",[1]; [10],1 (25%) (%)
same,"Leucocytes, worst CTC Grade by cycle: All Grades (%)",[1]; [11],1 (33%) (%)
same,"Leucocytes, worst CTC Grade by cycle: Grade 1-2 (%)",[1]; [11],1 (33%) (%)
same,"Leucocytes, worst CTC Grade by cycle: All Grades (%)",[1]; [12],8 (44%) (%)
same,"Leucocytes, worst CTC Grade by cycle: Grade 1-2 (%)",[1]; [12],8 (44%) (%)
same,"Leucocytes, worst CTC Grade by cycle: All Grades (%)",[1]; [13],2 (33%) (%)
same,"Leucocytes, worst CTC Grade by cycle: Grade 1-2 (%)",[1]; [13],2 (33%) (%)
same,"Leucocytes, worst CTC Grade by cycle: All Grades (%)",[1]; [14],6 (50%) (%)
same,"Leucocytes, worst CTC Grade by cycle: Grade 1-2 (%)",[1]; [14],6 (50%) (%)
same,"Leucocytes, worst CTC Grade by cycle: All Grades (%)",[1]; [15],7 (87%) (%)
same,"Leucocytes, worst CTC Grade by cycle: Grade 1-2 (%)",[1]; [15],7 (87%) (%)
same,"Leucocytes, worst CTC Grade by cycle: All Grades (%)",[1]; [16],3 (75%) (%)
same,"Leucocytes, worst CTC Grade by cycle: Grade 1-2 (%)",[1]; [16],3 (75%) (%)
same,"Leucocytes, worst CTC Grade by cycle: All Grades (%)",[1]; [17],4 (100%) (%)
same,"Leucocytes, worst CTC Grade by cycle: Grade 1-2 (%)",[1]; [17],4 (100%) (%)
same,"Leucocytes, worst CTC Grade by cycle: All Grades (%)",[1]; [18],3 (75%) (%)
same,"Leucocytes, worst CTC Grade by cycle: Grade 1-2 (%)",[1]; [18],3 (75%) (%)
same,"Leucocytes, worst CTC Grade by cycle: All Grades (%)",[1]; [19],2 (67%) (%)
same,"Leucocytes, worst CTC Grade by cycle: Grade 1-2 (%)",[1]; [19],2 (67%) (%)
same,"Leucocytes, worst CTC Grade by cycle: All Grades (%)",[1]; [20],1 (100%) (%)
same,"Leucocytes, worst CTC Grade by cycle: Grade 1-2 (%)",[1]; [20],1 (100%) (%)
same,"Neutrophils, worst CTC Grade by cycle: All Grades (%)",[2]; [4],4 (36%) (%)
same,"Neutrophils, worst CTC Grade by cycle: Grade 1-2 (%)",[2]; [4],4 (36%) (%)
same,"Neutrophils, worst CTC Grade by cycle: All Grades (%)",[2]; [5],2 (40%) (%)
same,"Neutrophils, worst CTC Grade by cycle: Grade 1-2 (%)",[2]; [5],2 (40%) (%)
same,"Neutrophils, worst CTC Grade by cycle: All Grades (%)",[2]; [6],2 (33%) (%)
same,"Neutrophils, worst CTC Grade by cycle: Grade 1-2 (%)",[2]; [6],2 (33%) (%)
same,"Neutrophils, worst CTC Grade by cycle: All Grades (%)",[2]; [7],3 (60%) (%)
same,"Neutrophils, worst CTC Grade by cycle: Grade 1-2 (%)",[2]; [7],3 (60%) (%)
same,"Neutrophils, worst CTC Grade by cycle: All Grades (%)",[2]; [8],1 (33%) (%)
same,"Neutrophils, worst CTC Grade by cycle: Grade 1-2 (%)",[2]; [8],1 (33%) (%)
same,"Neutrophils, worst CTC Grade by cycle: All Grades (%)",[2]; [9],2 (100%) (%)
same,"Neutrophils, worst CTC Grade by cycle: Grade 1-2 (%)",[2]; [9],2 (100%) (%)
same,"Neutrophils, worst CTC Grade by cycle: All Grades (%)",[2]; [10],1 (25%) (%)
same,"Neutrophils, worst CTC Grade by cycle: Grade 1-2 (%)",[2]; [10],1 (25%) (%)
same,"Neutrophils, worst CTC Grade by cycle: All Grades (%)",[2]; [11],1 (33%) (%)
same,"Neutrophils, worst CTC Grade by cycle: Grade 1-2 (%)",[2]; [11],1 (33%) (%)
same,"Neutrophils, worst CTC Grade by cycle: All Grades (%)",[2]; [12],3 (17%) (%)
same,"Neutrophils, worst CTC Grade by cycle: Grade 1-2 (%)",[2]; [12],3 (17%) (%)
same,"Neutrophils, worst CTC Grade by cycle: All Grades (%)",[2]; [13],1 (17%) (%)
same,"Neutrophils, worst CTC Grade by cycle: Grade 1-2 (%)",[2]; [13],1 (17%) (%)
same,"Neutrophils, worst CTC Grade by cycle: All Grades (%)",[2]; [14],2 (17%) (%)
same,"Neutrophils, worst CTC Grade by cycle: Grade 1-2 (%)",[2]; [14],2 (17%) (%)
same,"Neutrophils, worst CTC Grade by cycle: All Grades (%)",[2]; [15],2 (25%) (%)
same,"Neutrophils, worst CTC Grade by cycle: Grade 1-2 (%)",[2]; [15],2 (25%) (%)
same,"Neutrophils, worst CTC Grade by cycle: All Grades (%)",[2]; [17],2 (50%) (%)
same,"Neutrophils, worst CTC Grade by cycle: Grade 1-2 (%)",[2]; [17],2 (50%) (%)
same,"Neutrophils, worst CTC Grade by cycle: All Grades (%)",[2]; [18],1 (25%) (%)
same,"Neutrophils, worst CTC Grade by cycle: Grade 1-2 (%)",[2]; [18],1 (25%) (%)
same,"Neutrophils, worst CTC Grade by cycle: All Grades (%)",[2]; [19],1 (33%) (%)
same,"Neutrophils, worst CTC Grade by cycle: Grade 1-2 (%)",[2]; [19],1 (33%) (%)
same,cytotoxic activity in vitro in the presence of liver microsomes,tumor cells,increased
same,principle toxicities,[3],"nausea and vomiting (requiring intravenous antiemetic treatment), myelosuppression and transient elevations in transaminases"
same,antitumor effect observed,"[3]; tumor shrinkage at doses of 1250 and 1500 mcg/m^2, 197 patients",regressions of liver metastases were repeatedly observed
